Here are results for 4 molecules from patent US4340539A, “Derivatives of 6-bromo penicillanic acid” (priority 1980, dated 1982).

As a reminder, the half-life is how long it takes for the measured level to halve. Low values mean fast loss, high ones slow loss.

Each structure is given as a SMILES string. Where two headings read alike, the source gives them in different places.

Series [1] is described as follows: Hygroscopicity. The class given is physicochemical. Particulars: listed as 2β-chloromethyl-2α-methylpenam-3α-carboxylic acid sulfone.
Series [2] is described as follows: Storage stability of free acid. The class given is physicochemical. Particulars: 23° C., seven days.
Series [3] relates to β-lactamase enzyme RTEM. Particulars: cited from earlier work.
Series [4] relates to β-lactamase. Particulars: cited from earlier work.
Series [5] deals with bacteria. Particulars: cited from earlier work.
For series [6], the system named is β-lactamase-producing strains. Conditions: in vitro and in vivo; cited from earlier work.
Series [7] is described as follows: in vivo. Set-up: species or system mice. Conditions: mouse, blood, po, 100 mg/kg, Test 2, oral 100 mg/kg, 60 min; read-out: Blood level. From the text: Compounds prepared in 5% Propylene Glycol & TweenCMC-H2 O.
Values in parentheses are 95% confidence limits.
Assay Organism: E. coli A9675 (pH = 6.6, 0.1% inoculum)

Series [8] can be described thus: Blood levels after oral administration to mice (Table 4). It is filed as in vivo. Particulars: mouse; for concentration at […]: assay organism S. aureus A-9606, read-out: Blood level.
Series [9] can be described thus: Blood levels and half-life of BL-P2024 after oral administration of various doses to mice (Table 5). The class given is in vivo. Conditions: mouse; for concentration at 0.5 h: 30 min; for concentration at 2 h: 120 min; for concentration at 1 h: 60 min.
For series [10], the system named is β-lactamase producing strains of S. aureus. Nature of the series: Therapeutic efficacy of amoxicillin in combinations with BL-P2024 in infected mice (Table 7). It is filed as in vivo. Conditions: Staphylococcus aureus, po, read-out: PD50/Treatment.
The test system of series [11] is β-lactamase producing strains of E. coli. Described as above. The class given is in vivo. Conditions: oral.
The mark [12] stands for this setting: oral 25 mg/kg, read-out: Blood level.
The mark [13] stands for this setting: oral 50 mg/kg, read-out: Blood level.
Setting [14] is: oral 100 mg/kg, read-out: Blood level.
Where [15] appears, read: oral 200 mg/kg, assay organism S. aureus A9606, read-out: Blood level.

Turning to `CC1(CCl)C(C(=O)O)N2C(=O)CC2S1(=O)=O` (stereo not drawn) [BL-P2013 free acid, 2β-chloromethyl-2α-methylpenam-3α-carboxylic acid sulfone], the hygroscopicity result in series [1] is listed as “hygroscopic”. Also, in series [2], the storage stability result is “unstable”.
Take `CC1(C)[C@H](C(=O)O)N2C(=O)C(Br)[C@H]2S1(=O)=O` (stereo partly drawn) [(2S,5R,6S)-6β-Bromo-3,3-dimethyl-7-oxo-4-thia-1-azabicyclo[3.2.0]heptane-2-carboxylic acid, S,S-dioxide]: the “inhibition of RTEM” value in series [3] was “inhibit the action of the β-lactamase enzyme RTEM”.
As for `CC1(C)[C@H](C(=O)O)N2C(=O)C[C@H]2S1(=O)=O` [CP-45899], in series [4], the β-lactamase inhibition result is given as “irreversibly acting β-lactamase inhibitor”. The antibacterial activity entry in series [5] was “weak antibacterial activity”. For the same molecule, the potentiation of ampicillin result in series [6] was “potentiates the in vitro and in vivo activities of ampicillin”.
As to `CC(C)(C)C(=O)OCOC(=O)C1N2C(=O)CC2S(=O)(=O)C1(C)CCl` (stereo not drawn) [BL-P2024, Pivaloyloxymethyl 2β-Chloromethyl-2α-methylpenam-3α-carboxylate Sulfone], the concentration at 1 h in [7] came out at 7800 ng/mL; in series [9] (setting [13]) it was 6300 ng/mL; in [9] (setting [14]), 9400 ng/mL; in series [9] (setting [15]), 9800 ng/mL. Besides, the concentration at […] in series [8] (100 mg/kg, oral 100 mg/kg, 15 min) is 13100 ng/mL; in series [8] (200 mg/kg, oral 200 mg/kg, 150 min), above 2500 ng/mL; in [9] (oral 25 mg/kg, 15 min, read-out: Blood level), 5900 ng/mL; in series [9] (oral 25 mg/kg, 90 min, read-out: Blood level) it was 1900 ng/mL; in series [9] (oral 25 mg/kg, 150 min, read-out: Blood level) it was 700 ng/mL; in series [9] (oral 50 mg/kg, 15 min, read-out: Blood level), 7700 ng/mL. For the same molecule, the concentration at […] in series [9] (oral 50 mg/kg, 90 min, read-out: Blood level) was found to be 4700 ng/mL; in [9] (oral 50 mg/kg, 150 min, read-out: Blood level) it was 2300 ng/mL; in series [9] (oral 100 mg/kg, 15 min, read-out: Blood level), 12300 ng/mL; in [9] (oral 100 mg/kg, 90 min, read-out: Blood level), 7200 ng/mL; in [9] (oral 100 mg/kg, 150 min, read-out: Blood level), 4600 ng/mL; in [9] (oral 200 mg/kg, 15 min, assay organism S. aureus A9606, read-out: Blood level), 14700 ng/mL. Also, in series [9] (oral 200 mg/kg, 90 min, assay organism S. aureus A9606, read-out: Blood level), the concentration at […] is 8700 ng/mL. In addition, the half-life stood at 1.17 h in [8] (100 mg/kg, oral 100 mg/kg, assay organism E. coli A-9675); 1 h in [8] (100 mg/kg, oral 100 mg/kg, assay organism S. aureus A-9606); 1 h in series [8] (200 mg/kg, oral 200 mg/kg, assay organism S. aureus A-9606); 0.667 h in series [9] (oral 25 mg/kg); 1 h in series [9] (oral 50 mg/kg); 1.42 h in series [9] (oral 100 mg/kg). In addition, the half-life in [9] (oral 200 mg/kg, assay organism S. aureus A9606) stood at 1 h. In addition, the concentration at 0.5 h in series [9] (setting [12]) came out at 6200 ng/mL; in series [9] (setting [13]) it was 9500 ng/mL; in series [9] (setting [14]), 12200 ng/mL; in series [9] (setting [15]) it was 14400 ng/mL. For the same molecule, the concentration at 2 h worked out at 1300 ng/mL in series [9] (setting [12]), 5700 ng/mL in series [9] (setting [14]) and 5100 ng/mL in series [9] (setting [15]). Further, the ED50 in [10] (S. aureus A15091, challenge 5 × 10^8, vehicle TCMC) is above 200 mg/kg; in series [10] (S. aureus A20379, challenge 5 × 10^8, vehicle TCMC), 200 mg/kg. Further, the PD50/Treatment in [11] (E. coli A9675, challenge 6 × 10^5, vehicle TCMC) is recorded as above 200 mg/kg; in series [11] (E. coli A9675, challenge 7 × 10^5, vehicle 50% DMSO), above 25 mg/kg; in series [11] (E. coli A9675, challenge 7 × 10^5, vehicle TCMC), above 25 mg/kg; in series [11] (E. coli A9675, challenge 9 × 10^5, vehicle 50% DMSO), above 25 mg/kg.
